Results reported in patent US5017573A, “Indazole-3-carboxylic acid derivatives” (Dainippon Pharmaceutical Co., Ltd., priority 1988, dated 1991).

Tests used:
[1] = system: serotonin 3 (5--HT3) receptor; test: Effect on Von Bezold-Jarisch reflex in rats (serotonin 3 receptor antagonist activity); assay type: in vivo, rat; settings: male Wistar or SD rats, anesthetized; test compound 1 μg/kg i.v. 3 minutes before 2-methylserotonin (10-30 μg/kg i.v.)
Protocol: Effect on Von Bezold-Jarisch reflex in rats
(Serotonin 3 receptor antagonist activity)
The test was carried out substantially by the method of Fozard et al. [cf. Arch. Pharmacology, 326, 36-44 (1984)]. Male Wistar rats weighing 250-350 g or male SD rats weighing 300-400 g were anesthetized with urethane (1.5 g/kg, interraperitoneal) and placed on their back. An electrocardiogram (lead II) and a heart rate on the animals were recorded on an inkwriting oscillograph via a biophysical amplifier and a pulse rate tachomether, respectively. […] After stable responses were obtained following repeated administration of 2-methylserotonin at 15-minute intervals, the test compound (1 μg/kg) was administered intravenously 3 minutes before administration of 2-methylserotonin. The inhibition rate of the test compound was calculated as follows. [formula]

mice = test: Acute toxicity in mice; assay type: in vivo, mouse; settings: male Std-ddY mice; 100 mg/kg i.p.; mortality observed for 7 days
Protocol: An acute toxicity test was performed using male Std-ddY mice weighing 25-30 g. Test compounds dissolved or suspended in 0.5 % tragacanth solution were administered intraperitoneally.

[2] = system: cisplatin-induced vomiting in ferrets; test: Effect on cisplatin-induced vomiting in ferrets; assay type: in vivo, ferret; settings: male ferrets; 0.03 mg/kg i.v. twice (30 minutes before and 45 minutes after cisplatin 10 mg/kg); emetic episodes for 3 hours
Protocol: Effect on cisplatin-induced vomiting in ferrets and acute toxicity in mice
Male ferrets (Marshall Lab., U.S.A.) weighing approximately 1 kg were used. For intravenous injection, a cannule was implanted in the cervical vein under pentobarbital anethesia. The experiments were started 3 and 4 days after the operation. Saline (2 ml/kg) as a control group and a dose (0.03 mg/kg) of a test compound as a treated group were administered twice, i.e., 30 minutes before and 45 minutes after administratin of 10 mg/kg of cisplatin (Sigma, U.S.A) dissolved in saline (3 ml/kg). The number of emetic episodes for 3 hours after administration of cisplatin was recorded, and the inhibition rate of the test compound was calculated as follows. [formula]
All test compounds were administered intravenously.

| Structure (SMILES) | Inhibition rate (%) of Von Bezold-Jarisch reflex [1] [%] | Acute toxicity in mice (number of dead animals/number of animals used) (mice) | Inhibition of emetic episodes in ferrets, inhibition rate (%) [2] [%] |
| --- | --- | --- | --- |
| CN1CCN(Cc2ccc(Br)cc2)CC(NC(=O)c2n[nH]c3ccccc23)C1 (stereo not shown) [Example 10] | 82 |  |  |
| CN1CCN(Cc2ccccc2)CC(NC(=O)c2nn(C)c3ccccc23)C1 (stereo not shown) [Example 33, N-(1-benzyl-4-methylhexahydro-1H-1,4-diazepin-6-yl)-1-methyl-1H-indazole-3-carboxamide] | 96 | 2/5 | 44 |
| CN1CCN(Cc2ccccc2C#N)CC(NC(=O)c2n[nH]c3ccccc23)C1 (stereo not shown) [Example 11, N-[1-(2-cyanobenzyl)-4-methylhexahydro-1H-1,4-diazepin-6-yl]-1H-indazole-3-carboxamide] | 95 |  |  |
| CN1CCN(Cc2cc(F)cc(F)c2)CC(NC(=O)c2n[nH]c3ccccc23)C1 (stereo not shown) [Example 23] | 86 |  |  |
| Cc1ccc(CN2CCN(C)CC(NC(=O)c3n[nH]c4ccccc34)C2)cc1 (stereo not shown) [Example 3] | 92 |  |  |
| CN1CCN(Cc2cccc(F)c2)CC(NC(=O)c2n[nH]c3ccccc23)C1 (stereo not shown) [Example 7] | 84 |  |  |
| CC1CN(C)CC(NC(=O)c2n[nH]c3ccccc23)CN1Cc1ccccc1 (single isomer, unassigned) [Example 69, N-(1-benzyl-2,4-dimethylhexahydro-1H-1,4-diazepin-6-yl)-1H -indazole-3-carboxamide] | 90 |  |  |
| CCC(=O)n1nc(C(=O)NC2CN(C)CCN(Cc3ccccc3)C2)c2ccccc21 (stereo not shown) [Example 53, N-(1-benzyl-4-methylhexahydro-1H-1,4-diazepin-6-yl)-1-propionyl-1H-indazole-3-carboxamide] | 83 | 1/5 | 29 |
| CN1CCN(Cc2ccccc2F)CC(NC(=O)c2n[nH]c3ccccc23)C1 (stereo not shown) [Example 6] | 75 |  |  |
| CN1CCN(Cc2cccnc2)CC(NC(=O)c2n[nH]c3ccccc23)C1 (stereo not shown) [Example 16, N-[1-(3-pyridylmethyl)-4-methylhexahydro-1H-1,4-diazepin-6-yl]-1H-indazole-3-carboxamide] | 85 | 0/5 | 82 |
| C=CCn1nc(C(=O)NC2CN(C)CCN(Cc3ccccc3)C2)c2ccccc21 (stereo not shown) [Example 48] | 79 |  |  |
| CN1CCN(Cc2ccncc2)CC(NC(=O)c2n[nH]c3ccccc23)C1 (stereo not shown) [Example 17] | 91 | 1/5 | 62 |
| CC1CN(Cc2ccccc2)CC(NC(=O)c2n[nH]c3ccccc23)CN1C (single isomer, unassigned) [Example 67, N-(1-benzyl-3,4-dimethylhexahydro-1H-1,4-diazepin-6-yl)-1H -indazole-3-carboxamide] | 72 |  |  |
| CN1CCN(Cc2ccc(F)cc2)CC(NC(=O)c2n[nH]c3ccccc23)C1 (stereo not shown) [Example 8] | 77 | 0/5 | 71 |
| CCCCn1nc(C(=O)NC2CN(C)CCN(Cc3ccccc3)C2)c2ccccc21 (stereo not shown) [Example 46] | 70 |  |  |
| Cc1cccc(CN2CCN(C)CC(NC(=O)c3n[nH]c4ccccc34)C2)c1 (stereo not shown) [1(b), N-[1-(3-methylbenzyl)4-methylhexahydro-1H-1,4-diazepin-6-yl]-1H-indazole-3-carboxamide] | 83 |  |  |
| CN1CCN(Cc2ccccc2)CC(NC(=O)c2n[nH]c3ccccc23)C1 (stereo not shown) [Example 32, N-(1-benzyl-4-methylhexahydro-1H-1,4-diazepin-6-yl)-1H-indazole-3-carboxamide] |  | 0/5 | 62 |
| Cc1cccc(CN2CCN(C)CC(NC(=O)c3n[nH]c4ccccc34)C2)c1 (stereo not shown) [Example 1(a), N-[1-(3-methylbenzyl)4-methylhexahydro-1H-1,4-diazepin-6-yl]-1H-indazole-3-carboxamide] | 82 | 1/5 | 89 |
| COc1ccc(CN2CCN(C)CC(NC(=O)c3n[nH]c4ccccc34)C2)cc1 (stereo not shown) [Example 5] | 78 |  |  |
| CN1CCN(Cc2ccc(C#N)cc2)CC(NC(=O)c2n[nH]c3ccccc23)C1 (stereo not shown) [Example 13] | 83 |  |  |
| CC(=O)n1nc(C(=O)NC2CN(C)CCN(Cc3ccccc3)C2)c2ccccc21 (stereo not shown) [Example 52, N-(1-benzyl-4-methylhexahydro-1H-1,4-diazepin-6-yl)-1-acetyl-1H-indazole-3-carboxamide] | 89 |  |  |
